# Test results published in PubChem BioAssay (NCI).
#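 Compound exposure: 48 hours, 5 concentrations, 96-well plates. TGI is the concentration that stops growth completely.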
# Columns and labels:
# Test in all cases: NCI tumour cell line growth inhibition, 48 h
# 786-0 renal = system: 786-0 renal
# LOX IMVI melanoma = system: LOX IMVI melanoma
# ACHN renal = system: ACHN renal
# KM12 colon = system: KM12 colon
# CAKI-1 renal = system: CAKI-1 renal
# SF-295 CNS = system: SF-295 CNS
# OVCAR-5 ovarian = system: OVCAR-5 ovarian
# SF-268 CNS = system: SF-268 CNS
# SF-539 CNS = system: SF-539 CNS
# A549 NSCLC = system: A549 NSCLC
# MDA-N = system: MDA-N
# MALME-3M melanoma = system: MALME-3M melanoma
# TK-10 renal = system: TK-10 renal
# HT29 colon = system: HT29 colon
# COLO 205 colon = system: COLO 205 colon
# HS 578T breast = system: HS 578T breast
# T-47D breast = system: T-47D breast
# SK-MEL-5 melanoma = system: SK-MEL-5 melanoma
# A498 renal = system: A498 renal
SMILES,TGI (786-0 renal),TGI (LOX IMVI melanoma),TGI (ACHN renal),TGI (KM12 colon),TGI (CAKI-1 renal),TGI (SF-295 CNS),TGI (OVCAR-5 ovarian),TGI (SF-268 CNS),TGI (SF-539 CNS),TGI (A549 NSCLC),TGI (MDA-N),TGI (MALME-3M melanoma),TGI (TK-10 renal),TGI (HT29 colon),TGI (COLO 205 colon),TGI (HS 578T breast),TGI (T-47D breast),TGI (SK-MEL-5 melanoma),TGI (A498 renal)
CCOC(=O)CC[C@H](N)C(=O)N[C@@H](Cc1ccc(N(CCCl)CCCl)cc1)C(=O)OCC,2.51 µM,2.94 µM,1.72 µM,11.6 µM,4.39 µM,14.8 µM,6.78 µM,7.07 µM,2.8 µM,> 48.9 µM,2.57 µM,0.823 µM,4.26 µM,4.19 µM,2.3 µM,4.92 µM,8.49 µM,3.13 µM,42 µM
Cc1sc2nc(N(C)C)oc(=O)c2c1C,> 100 µM,> 100 µM,> 100 µM,> 100 µM,> 100 µM,> 100 µM,> 100 µM,> 100 µM,> 100 µM,> 100 µM,> 100 µM,> 100 µM,> 100 µM,> 100 µM,> 100 µM,> 100 µM,> 100 µM,> 100 µM,> 100 µM
CC[C@@]1(O)C(=O)OCc2c1cc1n(c2=O)Cc2c-1nc1ccccc1c2/C=N\NC(=O)C[n+]1ccccc1,> 27.8 µM,6 µM,1.27 µM,> 100 µM,20 µM,> 21.3 µM,> 65.7 µM,> 69.5 µM,0.971 µM,> 100 µM,> 100 µM,> 100 µM,> 100 µM,> 66.3 µM,> 100 µM,> 100 µM,2.9 µM,2.09 µM,21.4 µM
C=CCN1C(=O)/C(=C/c2ccc(Cl)cc2)N=C1SC/C=C/C,> 100 µM,> 100 µM,> 100 µM,> 100 µM,> 100 µM,> 100 µM,> 100 µM,> 100 µM,> 100 µM,> 100 µM,> 100 µM,> 100 µM,> 100 µM,> 100 µM,> 100 µM,> 100 µM,> 100 µM,82 µM,> 100 µM
O=C(CSc1ncccn1)N/N=C/c1ccccc1OCc1ccccc1,> 100 µM,36.4 µM,> 100 µM,> 100 µM,> 100 µM,50.9 µM,> 100 µM,> 100 µM,46 µM,> 100 µM,60.9 µM,> 100 µM,62.4 µM,> 100 µM,38.8 µM,95.3 µM,70.7 µM,28.4 µM,71.8 µM
CC12Nc3c(Cl)cc(Cl)cc3N1C(=O)c1ccccc12 (configuration not stated),> 100 µM,> 100 µM,> 100 µM,> 100 µM,> 100 µM,> 100 µM,> 100 µM,> 100 µM,> 100 µM,> 100 µM,> 100 µM,> 100 µM,> 100 µM,> 100 µM,> 100 µM,> 100 µM,> 100 µM,> 100 µM,99.9 µM
COC(=O)c1ccccc1/C=C1\Cc2c(ccc3c2CCC3)C1=O,> 100 µM,> 100 µM,> 100 µM,> 100 µM,> 100 µM,> 100 µM,> 100 µM,> 100 µM,> 100 µM,> 100 µM,> 100 µM,> 100 µM,> 100 µM,> 100 µM,> 100 µM,> 100 µM,> 100 µM,> 100 µM,> 100 µM
C[N+]12CCCCC1C(COc1cccc3cccnc13)CCC2 (configuration not stated),> 100 µM,> 100 µM,> 100 µM,> 100 µM,> 100 µM,> 100 µM,> 100 µM,> 100 µM,> 100 µM,> 100 µM,> 100 µM,> 100 µM,> 100 µM,> 100 µM,> 100 µM,> 100 µM,> 100 µM,> 100 µM,> 100 µM
O=C1CC(Br)c2c(Br)sc(Br)c21 (configuration not stated),29.9 µM,27.4 µM,31.6 µM,49 µM,38.8 µM,58.7 µM,31.9 µM,62.4 µM,43.7 µM,> 100 µM,28.8 µM,38.3 µM,32.4 µM,30.4 µM,33.9 µM,> 100 µM,38.3 µM,35.4 µM,> 100 µM
CC(C)OC(=O)c1ccc(NCC2=CC(=O)C=CC2=O)cc1,28.5 µM,26.2 µM,24.3 µM,41.8 µM,11.1 µM,> 83.1 µM,38.9 µM,26.1 µM,22.4 µM,> 100 µM,29.2 µM,22.7 µM,28.6 µM,32.7 µM,13.7 µM,65.4 µM,7.95 µM,32.2 µM,90.3 µM
CCCN(CCc1ccc(-c2ccccc2)cc1)CCc1ccc2n[nH]nc2c1,24.9 µM,28.6 µM,25.4 µM,34.1 µM,25.5 µM,27.5 µM,33.6 µM,48.7 µM,24 µM,30 µM,19.1 µM,22.8 µM,25.7 µM,23.6 µM,9.07 µM,51.8 µM,19.2 µM,15.8 µM,36.2 µM
O=c1[nH]c2cccc([N+](=O)[O-])c2c(=O)n1-c1ccc(Cl)cc1,55.9 µM,59.5 µM,25.1 µM,34.4 µM,19.5 µM,12.2 µM,36.5 µM,30.4 µM,26.2 µM,36.3 µM,26.6 µM,27.6 µM,39 µM,26.1 µM,16.6 µM,42 µM,26.8 µM,24 µM,30.6 µM
OCC1OC(NC(=S)NCCC(F)(F)C(F)(F)C(F)(F)C(F)(F)C(F)(F)C(F)(F)F)C(O)C(O)C1O (configuration not stated),> 100 µM,> 100 µM,> 100 µM,> 100 µM,> 100 µM,> 100 µM,> 100 µM,> 100 µM,> 100 µM,> 100 µM,> 100 µM,> 100 µM,> 100 µM,> 100 µM,> 100 µM,> 100 µM,> 100 µM,> 100 µM,56.6 µM
CN(C)CCn1c(=O)c2ccc(NCCNCCO)c3c(=O)c4ccccc4n(c1=O)c23,4.16 µM,0.78 µM,15.9 µM,2.42 µM,0.186 µM,14.6 µM,5.19 µM,0.977 µM,0.593 µM,3.16 µM,1.78 µM,3.41 µM,6.95 µM,4.6 µM,0.836 µM,1.37 µM,7.61 µM,0.813 µM,0.458 µM
COC(=O)c1ccccc1/C=C1\Cc2c(C)c3c(c(C)c2C1=O)CCC3,> 100 µM,> 100 µM,> 100 µM,> 100 µM,> 100 µM,> 100 µM,> 100 µM,> 100 µM,> 100 µM,> 100 µM,> 100 µM,> 100 µM,> 100 µM,> 100 µM,> 100 µM,95.6 µM,> 100 µM,> 100 µM,> 100 µM
COc1ccccc1C[C@@H]1OC2(C=CC(=O)CC2SC(=O)c2ccccc2)O[C@H]1Cc1ccccc1OC (some centres not stated),0.973 µM,1.9 µM,3.5 µM,8.4 µM,5.24 µM,4.14 µM,2.63 µM,2.44 µM,3.08 µM,8.67 µM,6.16 µM,4.26 µM,5.07 µM,3.14 µM,3.16 µM,4.73 µM,5.64 µM,3.1 µM,5.67 µM
O=C1c2ccccc2-c2nnc(-c3ccc([N+](=O)[O-])cc3)cc21,> 10 µM,> 10 µM,> 10 µM,> 10 µM,> 10 µM,> 10 µM,> 10 µM,> 10 µM,> 10 µM,> 10 µM,> 10 µM,> 10 µM,> 10 µM,> 10 µM,> 10 µM,> 10 µM,> 10 µM,> 10 µM,> 10 µM
CC(=O)C(C(=O)c1ccc(C)cc1)[C@@H]1OC(C)(C)O[C@@H]1[C@H]1COC(C)(C)O1 (some centres not stated),21.5 µM,21.8 µM,32.5 µM,65.6 µM,53.6 µM,> 100 µM,> 100 µM,> 83.4 µM,13.2 µM,> 91.6 µM,54.3 µM,34 µM,> 100 µM,20 µM,39.6 µM,> 59.8 µM,> 49.8 µM,29.2 µM,> 75.7 µM
